Data set [1] concerns M. tuberculosis Erdman (control strain). Nature of the data set: 96 well plate growth inhibition.
A further data set relates to M. tuberculosis CDC1551. Nature of the data set: 96 well plate growth inhibition. Particulars: visual, 8–10 d.
The test system of a further data set is M. tuberculosis Erdman. Nature of the data set: Inhibition of exponentially growing M. tuberculosis Erdman, 7 d flask culture.
Data set [2] relates to MSH biosynthesis in M. tuberculosis Erdman. Nature of the data set: MSH and GlcN-Ins levels in M. tuberculosis Erdman cultured 7 d with 2. The settings on record: 20–75 μM 2, 7 d culture, two independent experiments.
For data set [3], the target named is recombinant M. tuberculosis MshC (Mycobacterium tuberculosis, UniProt P9WJM9). The class given is biochemical.
The subject of the next data set is Vero-E6 cells. Particulars: African green monkey, 2 d.

The structures appear in SMILES notation. ≈ marks a conversion by molar mass, not a printed value. Read-outs that look alike come from different tables or passages of the source.

recombinant M. tuberculosis MshC, sequence (P9WJM9 whole entry, looked up): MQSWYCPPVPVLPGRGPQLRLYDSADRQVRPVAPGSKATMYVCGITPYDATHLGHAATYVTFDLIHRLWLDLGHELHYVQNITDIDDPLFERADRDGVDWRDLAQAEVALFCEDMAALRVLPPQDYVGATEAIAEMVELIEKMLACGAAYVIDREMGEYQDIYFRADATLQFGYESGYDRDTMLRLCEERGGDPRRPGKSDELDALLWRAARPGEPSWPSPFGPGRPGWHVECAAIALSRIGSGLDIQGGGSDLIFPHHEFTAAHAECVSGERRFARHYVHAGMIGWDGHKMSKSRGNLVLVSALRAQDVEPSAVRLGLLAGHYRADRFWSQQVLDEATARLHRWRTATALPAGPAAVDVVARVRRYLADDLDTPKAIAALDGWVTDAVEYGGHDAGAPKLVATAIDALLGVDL

As for `CN(CCCNC(=O)c1ccc2c(c1)N(Cc1cccc(Cl)c1)C(=O)c1ccccc1[S+]2[O-])C1CCCCC1` (stereo not shown) [Compound 2, N-[3-(cyclohexylmethylamino)propyl]-10-[(3-chlorophenyl)methyl]-10,11-dihydro-11-oxo-dibenzo-[b,f][1,4]-thiazepine-8-carboxamide-5-oxide], the “MIC95 (95% inhibition)” value was 28 to 55 µM in data set [1] and 110 µM (≈ 62.1 µg/mL) in the data set on M. tuberculosis CDC1551. Besides, in the data set on M. tuberculosis Erdman, the “concentration at which inhibition of growth was apparent” value stood at 20 µM. Further, the “viable cells relative to day 0 inoculum” value with M. tuberculosis Erdman (50 or 75 μM, plating) is “one-third”. Moreover, the “increase in the level of GlcN-Ins” value in data set [2] is 9 fold. For `CN(CCCNC(=O)c1ccc2c(c1)N(Cc1cccc(Cl)c1)C(=O)c1ccccc1S2)C1CCCCC1` [Compound 5, 10-(3-Chlorobenzyl)-N-(3-(cyclohexyl(methyl)amino)-propyl)-11-oxo-10,11 dihydrodibenzo[b,f][1,4]thiazepine-8-carboxamide], in data set [3] (SAR discussion), the “MshC inhibition, in words” value is listed as “less active than their corresponding sulfoxides”.

For `O=C(NCCCSC1CCCCC1)c1ccc2c(c1)N(Cc1cccc(Cl)c1)C(=O)c1ccccc1[S+]2[O-]` (stereo not shown) [Compound 6], in data set [3] (SAR discussion), the “MshC inhibition, in words” value is given as “complete loss of measurable activity”. Turning to `CCCCSCCCNC(=O)c1ccc2c(c1)N(Cc1cccc(Cl)c1)C(=O)c1ccccc1[S+]2[O-]` (stereo not shown) [Compound 8], the “MshC inhibition, in words” value in data set [3] was “complete loss of measurable activity”. Same read-out and setting: for `CC1CC(C)CN(CCCNC(=O)c2ccc3c(c2)N(Cc2cccc(Cl)c2)C(=O)c2ccccc2[S+]3[O-])C1` (stereo not shown) [Compound 10] the value was “less effective”. `CCC1CCCCN1CCCNC(=O)c1ccc2c(c1)N(Cc1cccc(Cl)c1)C(=O)c1ccccc1[S+]2[O-]` (stereo not shown) [Compound 12]: the “Vero Cell toxicity (MIC90)” value with Vero-E6 cells came to 100 µM. As for `O=C(NCCCN1CCOCC1)c1ccc2c(c1)N(Cc1cccc(Cl)c1)C(=O)c1ccccc1[S+]2[O-]` (stereo not shown) [Compound 14], in data set [3], the “MshC inhibition, in words” value is recorded as “similarly ineffective”.

Turning to `O=C(NCCCN1CCOCC1)c1ccc2c(c1)N(Cc1cccc(Cl)c1)C(=O)c1ccccc1S2` [Compound 15], in data set [3] (SAR discussion), the “MshC inhibition, in words” value is on record as “less active than their corresponding sulfoxides”. Regarding `O=C(NCCCN1CCCC1)c1ccc2c(c1)N(Cc1cccc(Cl)c1)C(=O)c1ccccc1[S+]2[O-]` (stereo not shown) [Compound 17], the “MIC95 (95% inhibition)” value in the data set on M. tuberculosis CDC1551 is 220 µM (≈ 115 µg/mL).

For the compound `O=C(NCCCN1CCCC1)c1ccc2c(c1)N(Cc1cccc(Cl)c1)C(=O)c1ccccc1S2` [Compound 18], the “MIC95 (95% inhibition)” value with M. tuberculosis CDC1551 came out at 110 µM (≈ 55.7 µg/mL). In addition, the “MshC inhibition, in words” value in data set [3] (SAR discussion) is listed as “less active than their corresponding sulfoxides”.

With `CC1CCCN(CCCNC(=O)c2ccc3c(c2)N(Cc2cccc(Cl)c2)C(=O)c2ccccc2[S+]3[O-])C1` (stereo not shown) [Compound 19], the “Vero Cell toxicity (MIC90)” value in the data set with Vero-E6 cells was determined as 100 µM.

As for `O=C(NCCN1CCCCCC1)c1ccc2c(c1)N(Cc1cccc(Cl)c1)C(=O)c1ccccc1[S+]2[O-]` (stereo not shown) [Compound 20], in the data set on Vero-E6 cells, the “Vero Cell toxicity (MIC90)” value was 100 µM. The “MIC95 (95% inhibition)” value against M. tuberculosis CDC1551 was determined as 110 µM (≈ 59 µg/mL). For `CC1CCCN(CCCNC(=O)c2ccc3c(c2)N(Cc2ccc(F)cc2)C(=O)c2ccccc2[S+]3[O-])C1` (stereo not shown) [Compound 35], the “fold less active than 3-chlorobenzyl derivative 19” value in data set [3] worked out at 5 fold.

For the compound `CCCN(CCC)CCCNC(=O)c1ccc2c(c1)N(Cc1ccc(F)cc1)C(=O)c1ccccc1[S+]2[O-]` (stereo not shown) [Compound 36], in data set [3], the “fold loss in activity compared with 21” value is reported as 30 fold.

`CN(CCCNC(=O)c1ccc2c(c1)N(Cc1ccc(F)cc1)C(=O)c1ccccc1[S+]2[O-])C1CCCCC1` (stereo not shown) [Compound 37]: in data set [3], the “fold increase of IC50 / loss in activity compared to 2” value was greater than 35 fold.

Consider `Cc1ccc(CN2C(=O)c3ccccc3[S+]([O-])c3ccc(C(=O)NCCCN(C)C4CCCCC4)cc32)c(C)c1` (stereo not shown) [Compound 40], for which the “MshC inhibition, in words” value in data set [3] (SAR discussion) is given as “just detectable inhibition”. Still for that read-out and setting: the value for `CCN(CC)CCCNC(=O)c1ccc2c(c1)N(Cc1ccc(C)cc1C)C(=O)c1ccccc1[S+]2[O-]` (stereo not shown) [Compound 41] was “no measurable inhibition”.

`Cc1ccc(CN2C(=O)c3ccccc3S(=O)(=O)c3ccc(C(=O)NCCCN4CCCC4)cc32)c(C)c1` [Compound 42]: the “MshC inhibition, in words” value in data set [3] (SAR discussion) was “just detectable inhibition”.

On to `Cc1ccc(CN2C(=O)c3ccccc3S(=O)(=O)c3ccc(C(=O)NCCCN4CCOCC4)cc32)c(C)c1` [Compound 43], for which the “MshC inhibition, in words” value in data set [3] (SAR discussion) is recorded as “no measurable inhibition”.
